No end group written: not given here.
How the values were obtained:
MlaA = experiment: Immunoblot analysis; format: cell-based, E. coli; details: densitometry
Description: (§1) Immunoblot analysis: To corroborate the findings of gene expression study, level of OmpC and MlaA proteins upon peptides (P1, P2, and P3) treatment was investigated as described previously. Peptides treated culture of APEC O78 was prepared as above and DMSO treated culture was used as control. Post-treatment, the fractions of cytoplasmic and membrane proteins was prepared using ultracentrifugation as previously described. The concentrations of fractionated membrane proteins were then normalized based on 280 nm and separated on a 12% SDS-PAGE. For immunoblot analysis, membrane proteins (25 μg) resolved on SDS-PAGE above were electrotransferred onto an Immuno-Blot® PVDF Membrane (Bio-Rad) and probed for OmpC and MlaA using anti-OmpC (1:2,000) (ThermoFisher Scientific) and anti-MlaA (1:15,000; Dr. Thomas J. Silhavy) polyclonal antibodies and goat anti-rabbit IgG HRP-conjugated secondary antibody (Sigma-Aldrich). The membrane was developed with Clarity Western ECL Substrate (Bio-Rad) and visualized in a FluorChem Q (proteinsimple) imager. The density of OmpC and MlaA proteins was quantified using ImageJ software.

OmpC = experiment: Immunoblot analysis; format: cell-based, E. coli; details: densitometry
Description: as §1

[1] = tested on: Salmonella enterica subsp. enterica serovar Enteritidis (SE); format: cell-based; details: No treatment
Description: MIC was determined by selecting peptide concentration at which there is no increased growth (no increase in OD), given indication of no ST growth. An independent repeat experiment was conducted.
Heat and protease tolerance of peptides: P1, P2, and P4 were heated for 6 minutes at 86° C. or treated with protease proteinase K, 200 μg/mL at 50° C. for 30 minutes. After which, the treated and/or heated peptides at their respective MICs were evaluated in the inhibition assay with Salmonella. The protocol from above was repeated in the Tecan with the same controls.
To analyze the perceived efficacy of arginine and lysine substitutes reported in previous studies, specific amino acid residues in P1 and P2 were replaced with lysine or arginine to test if the alliterations enhanced anti-Salmonella (ST and SE) activity. The MICs of the arginine or lysine substituted peptides ([…] (SEQ ID NO:37), […] (SEQ ID NO:38), […] (SEQ ID NO:39), KDENK (SEQ ID NO:41), PDEKK (SEQ ID NO:42), KDEKK (SEQ ID NO:43), KHTAPK (SEQ ID NO:45)) were determined as described early. Two independent experiments were conducted to ensure accuracy.

APEC O78 = experiment: Efficacy in wax moth larvae model; format: in vivo, Galleria mellonella
Description: Efficacy and toxicity of peptides in wax moth (Galleria mellonella) larvae model: To measure the efficacy and toxicity of peptides (P1, P2, and P3) in vivo, wax moth larvae model was used as described previously. Wax moth larvae were obtained from Vanderhorst Wholesale, Inc. (Saint Marys, OH) and were kept at 37° C. overnight before use. Healthy larvae (creamy color with no blackening) were selected and kept in sterile petri dishes before inoculation. For toxicity evaluation, larvae (n=10/group) were injected with 25.5 mM of peptides (dissolved in sterile water containing DMSO) through last left pro-leg using PB600-1 repeating dispenser (Hamilton) attached to insulin syringe (ReliOn; 31 gauze, 8 mm needle length). The injected larvae were incubated for 72 h at 37° C., and mortality was recorded every 12 h.
For efficacy evaluation, larvae (n=15/group) were pretreated (as above) and infected with rifampicin resistant (Rif) APEC O78 (2.3×10^4 CFU/larva) through last right pro-leg within 30 mins of treatment. The larvae were incubated at 37° C. for 72 h and mortality was recorded as above. […] The statistical significance (P<0.05) of treatments on survival of larvae and APEC load inside larvae was calculated using log-rank test and one-way ANOVA followed by Tukey's post-hoc test, respectively.

multiple APEC serotypes = format: cell-based, E. coli
Description: Anti-APEC spectrum determination: Peptides (P1, P2, and P3) were tested against multiple APEC serotypes/strains to determine their spectrum of activity. Peptides were added at their MICs and the growth inhibitory activity of the peptides was determined as described above.

APEC [2] = tested on: APEC
Description: FIGS. 58A-58B show the APEC load after treatment 8 days dpi with LGG and 50 mg/mL of peptides in drinking water.

APEC [3] = experiment: Alanine scanning SAR, anti-APEC activity; format: cell-based, E. coli
Text: Structure-activity relationship (SAR) study: To identify the crucial amino acid residues required for the peptide activity, alanine scanning libraries of peptides (P1, P2, and P3) (www.genscript.com/alanine_scanning.html) were synthesized (Table 22) and tested for anti-APEC activity as described above. The anti-APEC activity of peptide analogues (SEQ ID NO: 67-84) was then compared with the original peptide and the relative importance (% growth inhibition by peptide analogue/% growth inhibition by original peptide×100%) of each AA residue of the peptide was determined.

APEC O78 membrane = experiment: Transmission electron microscopy; format: cell-based, E. coli; details: 10×MIC, 3 h
Description: Transmission electron microscopy: To visualize the effect of peptides (P1, P2, and P3) on APEC membrane, transmission electron microscopy (TEM) was performed as described previously. The peptide treatment was performed as described above. […] After incubation, cells were fixed overnight at room temperature with 3% glutaraldehyde & 2% paraformaldehyde), washed, and postfixed with 1% osmium tetroxide (OsO4). The cells were then dehydrated with graded ethanol series and embedding was performed using Embed 812 Kit (Electron Microscopy Sciences, PA). Ultrathin (70 nm) sections were prepared on formvar-carbon coated grids and stained with uranyl acetate and lead citrate. Microscopy was performed using Hitachi H-7500 microscope at MCIC. Untreated bacterial culture was used as control.

S. typhimurium = experiment: P1 and P2 in drinking water, S. typhimurium infected chickens; format: in vivo; details: 100 mg/L in drinking water, 7 dpi
Description: Both the P1 and P2 at 200 mg/L and 100 mg/L concentrations reduced S. typhimurium colonization by 0.78 (p<0.05) and 0.69 (p<0.05) log CFU/gm, respectively.

## PDENK [Peptide P2, PDENK]
MlaA
  MlaA level decreased vs untreated APEC: 1.40 folds
OmpC
  OmpC level lower than in untreated APEC: 9.27 folds
[1]
  MIC against SE: 15 mM
APEC O78; 72 h post-infection, untreated 7.4±3.1 log CFU/larva
  APEC load in the larvae: no APEC was isolated
APEC O78; pretreated with 25.5 mM, 72 h, untreated 73.34%
  Larval mortality: 26.67%
Multiple APEC serotypes
  Growth inhibition against APEC serotypes: 95.0-100%
APEC [2]; LGG and 50 mg/mL of peptides in drinking water, 8 days dpi
  Reduction of APEC colonization in ceca: 1.02 Log CFU/gm
APEC [2]; in vivo
  Bodyweight: no significant effect
APEC [3]
  Relative importance of D and E in P2: 97.1%
  Relative importance of P, N and K in P2: < 40%
APEC O78 membrane
  APEC membrane in TEM: membrane either sloughed (or shed), ruptured, or flaccid
S. typhimurium
  Reduction of S. typhimurium colonization in ceca: 0.69 log CFU/gm
